Reference: US8785443B2, “Methods of using prodrugs of methyl hydrogen fumarate and pharmaceutical compositions thereof” (XenoPort, Inc., priority 2008, dated 2014)

How the values were obtained:
[1] = Enzymatic stability of prodrug in rat plasma; format: in vitro ADME; conditions: 37° C.; for half-life at 40 µM: read-out: T1/2 Parent Prodrug Cleavage (min) rPlasma
Protocol: Rat plasma (Pel-Freez® Biologicals, Rogers, Ark.; 36150) was used as obtained from the supplier.
(§1) The enzymatic stability assays for prodrug in CaCo2 S9, rat liver S9, rat plasma, pig pancreatin, and rat colonic was were performed using the following procedure. Ninety (90) μL of lysate is aliquoted to designated tubes on a cluster plates. The lysate was preincubated for 10 min at 37° C. With the exception of the t(0) time point, 10 μL of a 400 μM solution of test compound in 0.1M Tris buffer, pH 7.4 was added to multiple wells representing different incubation times. The samples were incubated at 37° C. At each time point, the reaction was quenched by adding 300 μL of 100% ethanol. The samples were thoroughly mixed, the tubes transferred to a V-bottom plate, and stored at −20° C. For the t(0) time point, the lysate was quenched with 300 μL of ice cold 100% ethanol, thoroughly mixed, 10 μL of 400 μM test compound was added and mixed, and the sample tube transferred to a V-bottom plate and stored at −20° C. For analysis, 180 μL from each sample was transferred to a 96 well V-bottom plate and sealed. After all time points were collected, the plate was centrifuged for 10 min at 5600 rpm at 4° C. One-hundred fifty (150) μL from each well was then transferred to a 96 well round bottom plate. Samples were analyzed using LC/MS/MS to determine the concentrations of prodrug and parent drug.
(§2) LC-MS/MS analysis for MHF was performed using an API 4000 equipped with an Agilent 1100 HPLC and a Leap Technologies autosampler. A HPLC Phenomenex Onyx Monolithic C18 (CHO-7644) column at a temperature of 35° C., flow rate of 2.0 mL/min, injection volume of 30 μL, and a 3 min run time was used. Mobile phase AI was 0.1% formic acid in water and Mobile phase AII was 0.1% formic acid in acetonitrile. The gradient was 98% AI/2% AII at time 0; 98% AI/2% AII at time 0.1 mM; 5% AI/95% AII at time 1.4 mM; 5% AI/95% AII at time 2.2 min; 98% AI/2% AII at time 2.3 mM; and 98% AI/2% AII at time 3.0 min MHF content was determined using negative ion mode (Q1 128.94; Q2 71).

[2] = Enzymatic stability of prodrug in rat colonic wash; format: in vitro ADME; conditions: rat colonic wash undiluted, 37° C.; for half-life at 40 µM: pH 7.4, read-out: T1/2 Parent Prodrug Cleavage (min) rColonic Wash
Protocol: To prepare the rat colonic wash, the colon between the ceacum and rectum was resected from a euthanized rat. Five to 10 mL of PBS pH 7.4 buffer (depending on the weight of the rat) was flushed into the lumen of the large intestine and collected into a 250 mL glass beaker at 0° C. (ice bath). The colonic wash was transferred into 10 mL conical tubes using a 10 mL syringe fitted with a filter. Samples of 0.5 mL colonic wash are stored at −80° C. until the time of use. Colonic was used without dilution.
as §1, §2

[3] = Enzymatic stability of prodrug in porcine pancreatin; format: in vitro ADME; conditions: porcine pancreatin 10 mg/mL, 0.1M Tris pH 7.4, 37° C.; for half-life at 40 µM: pig, read-out: T1/2 Parent Prodrug Cleavage (min) pPancreatin
Protocol: Porcine pancreatin (Sigma Aldrich, St. Louis, Mo.; P1625-100G) was diled to 10 mg/mL in 0.1M Tris buffer, pH 7.4.
as §1, §2

[4] = Enzymatic stability of prodrug in CaCo2 S9 homogenate; format: in vitro ADME; conditions: CaCo2 S9 0.5 mg/mL, 0.1M Tris pH 7.4, 37° C.; for half-life at 40 µM: human, Caco-2 cell S9 homogenate, read-out: T1/2 Parent Prodrug Cleavage (min) CaCo2
Protocol: CaCo2 S9 homogenate was prepared using the following procedure. CaCo2 cells were grown in culture for 21 days prior to harvesting. Culture medium was removed from the culture vessel and the monolayer was rinsed twice with 10-15 mL chilled PBS buffer. PBS buffer (7-10 mL) was added to the flask and the cells scraped from the growth surface and transferred to a centrifuge tube. The cells were pelleted by centrifugation at 1500 rpm for 5 min at 4° C. The supernatant was removed and the cell pellet washed with ice cooled PBS and repelleted by centrifugation. The supernatant was removed and the pellet resuspended in cell lysis buffer (0.15M KCl and 10 mM sodium phosphate buffer, pH 7.4). Cells were lysed by sonication at 4° C. using a probe sonicator. The lysed cells were then transferred to vials and centrifuged at 1600 rpm for 10 min at 4° C. to remove intact cells, nuclei, and large cellular debris. The supernatant was removed and transferred to a tube for centrifugation at 8600 rpm for 20 min at 4° C. After centrifugation, the resulting supernatant representing the CaCo2 cell homogenate S9 fraction was carefully removed and aliquoted into vials for storage at −80° C. until the time of use. At the time of use, CaCo2 S9 lysate was diluted to 0.5 mg/mL in 0.1M Tris buffer, pH 7.4.
as §1, §2

pH 8.0 buffer stability = format: physicochemical; conditions: 150 mM NaH2PO4 buffer pH 8.0, 60 min, 37° C.
Protocol: For the pH 8.0 stability studies, 190 μL of 150 mM NaH2PO4 buffer pH 8.0 was added to each sample tube. Ten (10) μL of 20 mM test compound was added to each tube and mixed. The samples were incubated for 60 min at 37° C. Following incubation, the samples were transferred to room temperature and 800 μL of 50% ACN in water was added to each tube. Samples were analyzed using LC/MS/MS to determine the concentrations of prodrug and parent drug.
as §2

[5] = Enzymatic stability of prodrug in rat liver S9; format: in vitro ADME; conditions: rat liver S9 0.5 mg/mL, pH 7.4, 1 mM NADPH, 37° C.; for half-life at 40 µM: read-out: T1/2 Parent Prodrug Cleavage (min) rLiver
Protocol: Rat liver S9 (XenoTech, Lenexa, Kans.; R1000.59, 20 mg/mL) was diluted to 0.5 mg mL in 0.1 M potassium phosphate buffer at pH 7.4 and 1 mM NADPH cofactor.
as §1, §2

Row | Molecule | half-life at 40 µM [1] | half-life at 40 µM [2] | half-life at 40 µM [3] | half-life at 40 µM [4] | pH 8.0: Percent DMF or prodrug remaining after 60 minutes (pH 8.0 buffer stability) | half-life at 40 µM [5] | melting point | T1/2 Parent Prodrug Cleavage (min) rPlasma [1] | T1/2 Parent Prodrug Cleavage (min) rColonic Wash [2] | T1/2 Parent Prodrug Cleavage (min) pPancreatin [3] | T1/2 Parent Prodrug Cleavage (min) CaCo2 [4] | T1/2 Parent Prodrug Cleavage (min) rLiver [5]
1 | CCN(CC)C(=O)COC(=O)/C=C/C(=O)OC [Compound 1, (N,N-Diethylcarbamoyl)methyl methyl (2E)but-2-ene-1,4-dioate] | 1 min | > 60 min | 8 min | 8 min | 63% | 2 min |  |  |  |  |  | 
2 | COC(=O)/C=C/C(=O)OCC(=O)NCc1ccccc1 [Compound 2, Methyl [N-benzylcarbamoyl]methyl (2E)but-2-ene-1,4-dioate] | 9 min | 25 min | 1 min | 4 min | 17% | 9 min |  |  |  |  |  | 
3 | COC(=O)/C=C/C(=O)OCC(=O)N1CCOCC1 [Compound 3, Methyl 2-morpholin-4-yl-2-oxoethyl (2E)but-2-ene-1,4-dioate] | 1 min | > 60 min | 8 min | 56 min | 53% | 22 min | 124 to 126 °C |  |  |  |  | 
4 | CCCCNC(=O)COC(=O)/C=C/C(=O)OC [Compound 4, (N-Butylcarbamoyl)methyl methyl (2E)but-2-ene-1,4-dioate] | 1 min | 33 min | 2 min | 5 min | 40% | 2 min |  |  |  |  |  | 
5 | COCCNC(=O)COC(=O)/C=C/C(=O)OC [Compound 5, [N-(2-Methoxyethyl)carbamoyl]methyl methyl (2E)but-2-ene-1,4-dioate] | 2 min | > 60 min | 3 min | 30 min | 53% | 10 min |  |  |  |  |  | 
6 | COC(=O)/C=C/C(=O)OCC(=O)N(C)C [Compound 9] | 1 min | > 60 min | 4 min | 8 min | 47% | 6 min |  |  |  |  |  | 
7 | Methyl(N-(1,3,4-thiadiazol-2-yl)carbamoyl)methyl(2E)but-2ene-1,4-dioate [Compound 8] |  |  |  |  | 141% |  |  | 6 min | 27 min | 15 min | 52 min | 23 min

Next, values leading:

Row | half-life at 40 µM [1] | half-life at 40 µM [2] | half-life at 40 µM [3] | half-life at 40 µM [4] | pH 8.0: Percent DMF or prodrug remaining after 60 minutes (pH 8.0 buffer stability) | half-life at 40 µM [5] | melting point | T1/2 Parent Prodrug Cleavage (min) rPlasma [1] | T1/2 Parent Prodrug Cleavage (min) rColonic Wash [2] | T1/2 Parent Prodrug Cleavage (min) pPancreatin [3] | T1/2 Parent Prodrug Cleavage (min) CaCo2 [4] | T1/2 Parent Prodrug Cleavage (min) rLiver [5] | Molecule
8 | 1 min | > 60 min | 4 min | 3 min | 42% | 1 min |  |  |  |  |  |  | COC(=O)/C=C/C(=O)OCC(=O)N(C)OC [Compound 10, (N-Methoxy-N-methylcarbamoyl)methyl methyl (2E) but-2-ene-1,4-dioate]
9 |  |  |  |  |  |  | 79 to 82 °C |  |  |  |  |  | COCCN(CCOC)C(=O)COC(=O)/C=C/C(=O)OC [Compound 11]
10 |  |  |  |  |  |  | 70 to 73 °C |  |  |  |  |  | COC(=O)/C=C/C(=O)OC(C)C(=O)N1CCOCC1 (stereo not shown) [Compound 28, Methyl 1-methyl-2-morpholin-4-yl-2-oxoethyl (2E)but-2-ene-1,4-dioate]
11 |  |  |  |  |  |  | 79 to 82 °C |  |  |  |  |  | COC(=O)/C=C/C(=O)O[C@@H](C)C(=O)N1CCOCC1 [Compound 31, (1S)-1-Methyl-2-morpholin-4-yl-2-oxoethyl methyl (2E)but-2-ene-1,4-dioate]
